Laboratory results as given in patent US10130830B2, “Preservative systems comprising cationic surfactants” (Laboratorios Miret, S.A., priority 2005, dated 2018).
Values joined by “and” are separate entries in the source; they are usually repeats but may differ in a detail not shown here. Equal entries are not always repeated.

Legend:
aerobic total count = experiment: Preservative action in cooked chicken breast, aerobic total count; type: cell-based; settings: Example 9, cooked chicken, 0.2 g/kg
Procedure: (2) Determination of Preservative Action in Chicken Breast. Process of Preparation • 1. Fresh chicken breast was diced to pieces • 2. Brine (8.70% sodium chloride and 4.35% tripolyphosphate in water) was added to the fresh chicken in an amount of 11.5 g brine per 88.5 g meat in the control preparation and 11.5 g brine and 88.4 g meat in the preparations treated with preservative. • 3. Brine and meat were mixed during 15 minutes, in the preparations treated with preservative the preservative was added after 14 minutes in an amount of 0.2 g/kg. • 4. Vacuum refrigerate tumbling was made during 30 minutes. • 5. Samples were vacuum-packed in sterile bags and they were cooked at 85° C. for 30 minutes. • 6. The cooked chicken was refrigerated at 4° C. • 7. The cooked chicken was diced in irregular shapes. • 8. Then, the nuggets were stored at 10° C. in sterile vacuum-packed bags. Analysis […] Dilutions were made in buffered peptone water. Tryptone Soya Agar was harvested with each dilution and incubated at 35° C. for 48 hours. The mean value in log cfu/g of three samples per treatment and day of analysis was calculated.

Aerobes = experiment: Preservative action in cosmetic products (Antimicrobial Effectiveness Testing USP 24th Edition), aerobes; type: cell-based; settings: Example 10, oil in water emulsion with non-ionic surfactant, 0.2 g/kg
From the text: (§1) (1) Determination of Preservative Action in Cosmetic Products. […] This assay consists of the contamination of the protecting formulations with an inoculum mixture of 10^8 cfu/ml concentration, for each of the micro-organisms, and the determination of the number of viable cells in time. This inoculum mixture is composed of the following microorganisms: [table] The cosmetic composition to be analysed is divided into sterile containers with 50 g of product for each flask. Each container is inoculated with 0.5 ml of inoculum (10^8 cfu/ml). The target concentration is 10^6 cfu/ml, approximately. All the containers are kept at a temperature between 20-25° C. and are protected from light. The level of the microbial contamination is checked at 0 hours, 7 days, 14 days and 28 days. The number of colonies is evaluated by dilution in buffer peptone with the appropriate neutraliser agent of the preservative. The culture media used for counting the microorganisms are: […] (2) Determination of Preservative Action in Chicken Breast. Process of Preparation • 1. Fresh chicken breast was diced to pieces • 2. Brine (8.70% sodium chloride and 4.35% tripolyphosphate in water) was added to the fresh chicken in an amount of 11.5 g brine per 88.5 g meat in the control preparation and 11.5 g brine and 88.4 g meat in the preparations treated with preservative. • 3. Brine and meat were mixed during 15 minutes, in the preparations treated with preservative the preservative was added after 14 minutes in an amount of 0.2 g/kg. • 4. Vacuum refrigerate tumbling was made during 30 minutes. • 5. Samples were vacuum-packed in sterile bags and they were cooked at 85° C. for 30 minutes. • 6. The cooked chicken was refrigerated at 4° C. • 7. The cooked chicken was diced in irregular shapes. • 8. Then, the nuggets were stored at 10° C. in sterile vacuum-packed bags. Analysis

Moulds = experiment: Preservative action in cosmetic products (Antimicrobial Effectiveness Testing USP 24th Edition), moulds; type: cell-based, Aspergillus niger; settings: Example 10, oil in water emulsion with non-ionic surfactant, 0.2 g/kg
From the text: as §1

Yeast = experiment: Preservative action in cosmetic products (Antimicrobial Effectiveness Testing USP 24th Edition), yeast; type: cell-based, Candida albicans; settings: Example 10, oil in water emulsion with non-ionic surfactant, 0.2 g/kg
From the text: as §1

[1] = day 56 (8 weeks), mean of triplicate

CC(=O)O.CCCCCCCCCCCC(=O)N[C@@H](CCCN=C(N)N)C(=O)OCC [LAE Ac, LAE acetate]
aerobic total count, mean (aerobic total count; day 0, mean of triplicate): 2.0 log cfu/g
aerobic total count (aerobic total count; day 0, samples 1-3): 2.0 log cfu/g
aerobic total count, mean (aerobic total count; day 7, mean of triplicate): 2.0 log cfu/g
aerobic total count (aerobic total count; day 7, samples 1-3): 2.0 log cfu/g
aerobic total count, mean (aerobic total count; day 14, mean of triplicate): 2.0 log cfu/g
aerobic total count (aerobic total count; day 14, samples 1-3): 2.0 log cfu/g
aerobic total count, mean (aerobic total count; day 21, mean of triplicate): 2.1 log cfu/g
aerobic total count (aerobic total count; day 21, samples 1-3): 2.1 log cfu/g and 2.3 log cfu/g and 2.0 log cfu/g
aerobic total count, mean (aerobic total count; day 28, mean of triplicate): 2.5 log cfu/g
aerobic total count (aerobic total count; day 28, samples 1-3): 3.0 log cfu/g and 2.1 log cfu/g and 2.3 log cfu/g
aerobic total count, mean (aerobic total count; day 35, mean of triplicate): 2.5 log cfu/g
aerobic total count (aerobic total count; day 35, samples 1-3): 2.3 log cfu/g and 2.8 log cfu/g and 2.5 log cfu/g
aerobic total count, mean (aerobic total count; day 42, mean of triplicate): 3.1 log cfu/g
aerobic total count (aerobic total count; day 42, samples 1-3): 3.1 log cfu/g and 2.8 log cfu/g and 3.3 log cfu/g
aerobic total count, mean (aerobic total count; day 49, mean of triplicate): 3.4 log cfu/g
aerobic total count (aerobic total count; day 49, samples 1-3): 3.3 log cfu/g and 3.0 log cfu/g and 3.9 log cfu/g
aerobic total count, mean (aerobic total count; [1]): 3.9 log cfu/g
aerobic total count (aerobic total count; day 56, samples 1-3): 3.8 log cfu/g and 4.0 log cfu/g and 3.9 log cfu/g
Aerobes count (Aerobes; 0 days): 6.0 log cfu/g
Aerobes count (Aerobes; 7 days): 2.5 log cfu/g
Aerobes count (Aerobes; 14 days): <2.0 log cfu/g
Moulds count (Moulds; 0 days): 4.1 log cfu/g
Moulds count (Moulds; 7 days): <2.0 log cfu/g
Moulds count (Moulds; 14 days): <2.0 log cfu/g
Yeast count (Yeast; 0 days): 5.3 log cfu/g
Yeast count (Yeast; 7 days): 2.1 log cfu/g
Yeast count (Yeast; 14 days): <2.0 log cfu/g

CCCCCCCCCCCC(=O)N[C@@H](CCCN=C(N)N)C(=O)OCC.N[C@@H](CCC(=O)O)C(=O)O [LAE Gl, LAE glutamate]
aerobic total count, mean (aerobic total count; day 0, mean of triplicate): 2.0 log cfu/g
aerobic total count (aerobic total count; day 0, samples 1-3): 2.0 log cfu/g
aerobic total count, mean (aerobic total count; day 7, mean of triplicate): 2.0 log cfu/g
aerobic total count (aerobic total count; day 7, samples 1-3): 2.0 log cfu/g
aerobic total count, mean (aerobic total count; day 14, mean of triplicate): 2.0 log cfu/g
aerobic total count (aerobic total count; day 14, samples 1-3): 2.0 log cfu/g
aerobic total count, mean (aerobic total count; day 21, mean of triplicate): 2.1 log cfu/g
aerobic total count (aerobic total count; day 21, samples 1-3): 2.1 log cfu/g and 2.2 log cfu/g and 2.0 log cfu/g
aerobic total count, mean (aerobic total count; day 28, mean of triplicate): 2.3 log cfu/g
aerobic total count (aerobic total count; day 28, samples 1-3): 2.5 log cfu/g and 2.1 log cfu/g and 2.2 log cfu/g
aerobic total count, mean (aerobic total count; day 35, mean of triplicate): 2.4 log cfu/g
aerobic total count (aerobic total count; day 35, samples 1-3): 2.3 log cfu/g and 2.5 log cfu/g
aerobic total count, mean (aerobic total count; day 42, mean of triplicate): 2.7 log cfu/g
aerobic total count (aerobic total count; day 42, samples 1-3): 2.6 log cfu/g and 2.8 log cfu/g
aerobic total count, mean (aerobic total count; day 49, mean of triplicate): 3.2 log cfu/g
aerobic total count (aerobic total count; day 49, samples 1-3): 3.2 log cfu/g and 3.0 log cfu/g and 3.5 log cfu/g
aerobic total count, mean (aerobic total count; [1]): 3.5 log cfu/g
aerobic total count (aerobic total count; day 56, samples 1-3): 3.5 log cfu/g and 3.8 log cfu/g and 3.3 log cfu/g
Aerobes count (Aerobes; 0 days): 6.1 log cfu/g
Aerobes count (Aerobes; 7 days): 2.3 log cfu/g
Aerobes count (Aerobes; 14 days): <2.0 log cfu/g
Moulds count (Moulds; 0 days): 4.1 log cfu/g
Moulds count (Moulds; 7 days): <2.0 log cfu/g
Moulds count (Moulds; 14 days): <2.0 log cfu/g
Yeast count (Yeast; 0 days): 5.6 log cfu/g
Yeast count (Yeast; 7 days): 2.4 log cfu/g
Yeast count (Yeast; 14 days): <2.0 log cfu/g

CC(O)C(=O)O.CCCCCCCCCCCC(=O)N[C@@H](CCCN=C(N)N)C(=O)OCC [LAE La, LAE lactate]
aerobic total count, mean (aerobic total count; day 0, mean of triplicate): 2.0 log cfu/g
aerobic total count (aerobic total count; day 0, samples 1-3): 2.0 log cfu/g
aerobic total count, mean (aerobic total count; day 7, mean of triplicate): 2.0 log cfu/g
aerobic total count (aerobic total count; day 7, samples 1-3): 2.0 log cfu/g
aerobic total count, mean (aerobic total count; day 14, mean of triplicate): 2.0 log cfu/g
aerobic total count (aerobic total count; day 14, samples 1-3): 2.0 log cfu/g
aerobic total count, mean (aerobic total count; day 21, mean of triplicate): 2.2 log cfu/g
aerobic total count (aerobic total count; day 21, samples 1-3): 2.1 log cfu/g and 2.4 log cfu/g and 2.0 log cfu/g
aerobic total count, mean (aerobic total count; day 28, mean of triplicate): 2.3 log cfu/g
aerobic total count (aerobic total count; day 28, samples 1-3): 2.6 log cfu/g and 2.1 log cfu/g and 2.3 log cfu/g
aerobic total count, mean (aerobic total count; day 35, mean of triplicate): 2.7 log cfu/g
aerobic total count (aerobic total count; day 35, samples 1-3): 2.8 log cfu/g and 2.5 log cfu/g
aerobic total count, mean (aerobic total count; day 42, mean of triplicate): 3.3 log cfu/g
aerobic total count (aerobic total count; day 42, samples 1-3): 3.1 log cfu/g and 3.5 log cfu/g and 3.3 log cfu/g
aerobic total count, mean (aerobic total count; day 49, mean of triplicate): 3.6 log cfu/g
aerobic total count (aerobic total count; day 49, samples 1-3): 3.3 log cfu/g and 3.6 log cfu/g and 3.9 log cfu/g
aerobic total count, mean (aerobic total count; [1]): 4.1 log cfu/g
aerobic total count (aerobic total count; day 56, samples 1-3): 4.2 log cfu/g and 4.0 log cfu/g and 3.9 log cfu/g
Aerobes count (Aerobes; 0 days): 6.1 log cfu/g
Aerobes count (Aerobes; 7 days): 2.2 log cfu/g
Aerobes count (Aerobes; 14 days): <2.0 log cfu/g
Moulds count (Moulds; 0 days): 4.2 log cfu/g
Moulds count (Moulds; 7 days): <2.0 log cfu/g
Moulds count (Moulds; 14 days): <2.0 log cfu/g
Yeast count (Yeast; 0 days): 5.4 log cfu/g
Yeast count (Yeast; 7 days): 2.2 log cfu/g
Yeast count (Yeast; 14 days): <2.0 log cfu/g
